Results published in publication PMC6331910, “The Curcumin Analogue 1,5-Bis(2-hydroxyphenyl)-1,4-pentadiene-3-one Induces Apoptosis and Downregulates E6 and E7 Oncogene Expression in HPV16 and HPV18-Infected Cervical Cancer Cells” (Molecules, 2015).

Legend:
[1] = test system: C4-2 prostate cancer cells; design: method as in PMID 21796654; details: cited from earlier work
[2] = test system: LNCaP prostate cancer cells; design: method as in PMID 21796654; details: cited from earlier work
[3] = test system: HeLa; test: Acridine orange/ethidium bromide double staining, quantification of viable, apoptotic and necrotic cells; format: cell-based, human
Method: (§1) HeLa, 9 μM] at various time points. Each experiment included a set of untreated control cells (Media with DMSO alone). Double staining with acridine orange and ethidium bromide and consequently fluorescent microscopic analysis is an established method by which to distinguish between viable, necrotic and apoptotic cells. […] Following treatment, the cells were pelleted, washed twice in 1× PBS and resuspended in 50 μL 1× PBS. 1 μL of dye mixture (1 part 100 μg/mL acridine orange in PBS and 1 part 100 μg/mL ethidium bromide in PBS) was added to 10 μL of cell suspension and the entire volume was placed on a clean microscope slide. Cells were examined by fluorescence microscopy using the fluorescein filter (BX41, Olympus, Melville, NY, USA) and were distinguished via the morphological aspect of chromatin condensation in stained nuclei as previously established. A minimum of 200 cells were counted per sample and the percentage of cells from each population (viable, live apoptotic, dead apoptotic, necrotic) was calculated.

[4] = test system: CaSki; test: as above; format: cell-based, human
Method: as §1

[5] = test system: HeLa; test: MTT anti-proliferative (time-dependent) assay, 24, 48 and 72 h; format: cell-based, human
Method: (§2) HeLa, CaSki and MRC9 cells were plated in triplicate wells in 96-well flat-bottomed tissue culture plates (Nunc, Roskilde, Denmark) with 10^5 cells per mL in 100 μL culture media with working concentrations of diarylpentanoid treatment ranging from 1.6 to 100 μM. Control-treated wells contained cells incubated in media with equal volumes of DMSO (0.2%). Cells were treated for 72 h for dose-dependent cytotoxicity assays and at 24, 48 and 72 h for anti-proliferative (time-dependent) assays. In order to assess cell viability and anti-proliferative activity after diarylpentanoid treatment, the colorimetric 3-(4,5-dimethylthiazol-2-yl)-2,5-diphenyltetrazolium bromide (MTT) assay was performed as previously described with modifications. The media was aspirated and cells were incubated in 100 µL complete medium with 0.5 mg/mL MTT solution for 4 h in the dark to allow metabolism of MTT by cellular mitochondrial dehydrogenases. The excess MTT was aspirated and the formazan crystals formed were dissolved by the addition of 100 µL of DMSO. The absorbance of dark blue formazan was read at 570/650 nm wavelengths using a microplate reader (Bio-Rad Benchmark Plus Microplate Spectrophotometer, Hercules, CA, USA). Triplicate absorbance values were averaged and the effect of the compounds on growth inhibition was assessed as percentage cell viability as follows: (1) Percentage cell viability =Absorbance of Test − Absorbance of Blank (media only)/Absorbance of Control − Absorbance of Blank (media only) × 100 where, absorbance = optical density of sample, O.D.; control = untreated sample; test = treated sample.
(§3) An independent set of vehicle-treated (DMSO only) controls were included in the anti-proliferative assays to assess the proliferation of untreated cancer cells over 24, 48 and 72 h. As such, the cell viability at 24 h was used as a baseline to measure proliferation rate at 48 and 72 h. (2) Percentage cell viability = […]/Absorbance of Control (24 h) × Absorbance of Blank (media only) × 100

[6] = test system: CaSki; test: as above; format: cell-based, human; details: for cell viability: 3.1–100 μM
Method: as §2, §3

[7] = test system: caspase-3 activity in HeLa cells; test: Caspase-3 colorimetric assay (relative caspase-3 activity); format: cell-based, human; details: all time points and doses (3, 6, 9 μM)
Method: (§4) HeLa, 9 μM] at various time points. Each experiment included a set of untreated control cells (Media with DMSO alone). Caspase-3 activity was assessed using the Caspase-3 Colorimetric Assay Kit (Sigma Aldrich), following the manufacturer’s instructions. […] Following treatment, the cells were washed in PBS and suspended in a lysis buffer (50 mM HEPES pH 7.4, 5 mM CHAPS, 5 mM DTT) for 25 min at a concentration of 10^7 cells per 100 μL of buffer. Lysed cells were centrifuged at 16,000× g, 4 °C for 30 min. Lysate protein concentration was determined using the Cayman Chemical Protein Determination (Cayman Chemical Company, Ann Arbor, MI, USA) kit which is a colorimetric method for total protein quantification based on the Bradford method. In short, 100 μL of protein samples was diluted in 96-well plates and 100 μL of the assay reagent was added to the samples, incubated for 5 min and the absorbance measured at 595 nm. Protein concentrations were calculated from a regression line fit to a series of standard protein dilutions assays on the same plate as the unknown samples. […] The effect of Ac-DEVD-CHO, a caspase-3 inhibitor, on caspase-3 activity was studied simultaneously. As per the manufacturer’s instructions, 10 μL of the inhibitor Ac-DEVD-CHO (200 μM) was added to a well containing the assay buffer, followed immediately by the cell lysate and 10 μL of the substrate Ac-DEVD-pNA (2 mM). Caspase-3 activity was assessed by measuring the absorbance released by the pNA molecule at 405 nm using a Bio-Rad Benchmark Plus Microplate Spectrophotometer. Caspase-3 activity was expressed by measuring the ratio of the mean caspase-3 activity of treated cells relative to untreated cells.

[8] = test system: caspase-3 activity in CaSki cells; test: as above; format: cell-based, human
Method: as §4

Question: Which “concentration causing significant cell death” value [1] does the source give for `O=C(C=Cc1ccccc1O)C=Cc1ccccc1O` [MS17, 1,5-bis(2-hydroxyphenyl)-1,4-pentadiene-3-one] here?
Answer: The value was “more than 2.5 μM”.

Question: And the “concentration causing significant cell death” value [2]?
Answer: Its value is over 10 µM.

Question: What about the early apoptotic cells ([3]; 3 µM, 24 h) of the same compound?
Answer: Its early apoptotic cells is 40%.

Question: What about the early apoptotic cells ([3]; 3 µM, 48 h) of the same compound?
Answer: The early apoptotic cells was 50%.

Question: What about the necrotic cells ([3]; 3 µM, throughout the treatment period (24 and 48 h)) of the same compound?
Answer: Its necrotic cells is “approximately 10%”.

Question: And the early apoptotic cells ([3]; 6 µM, 24 h)?
Answer: Its early apoptotic cells is 60%.

Question: And the early apoptotic cells ([3]; 6 µM, 48 h)?
Answer: The early apoptotic cells was 30%.

Question: What about the necrotic cells ([3]; 6 µM, throughout the treatment period (24 and 48 h)) of the same compound?
Answer: The necrotic cells was “approximately 25%”.

Question: And the early apoptotic cells ([3]; 9 µM, 24 h)?
Answer: Its early apoptotic cells is 50%.

Question: And the necrotic cells ([3]; 9 µM, 24 h)?
Answer: Its necrotic cells is 40%.

Question: What about the early apoptotic cells ([3]; 9 µM, 48 h) of the same compound?
Answer: Its early apoptotic cells is 10%.

Question: What about the necrotic cells ([3]; 9 µM, 48 h) of the same compound?
Answer: Its necrotic cells is 50%.

Question: What about the viable cells ([3]; 24 h, end of dose-dependent decrease (3–9 µM)) of the same compound?
Answer: The viable cells was “less than 10%”.

Question: And the viable cells ([3]; 48 h, with increasing treatment dose (3–9 µM))?
Answer: Its viable cells is “less than 5%”.

Question: What about the late apoptotic cells ([3]; all treatment doses, 24 h) of the same compound?
Answer: The late apoptotic cells was at most 10%.

Question: And the early apoptotic cells ([4]; 2 µM, 24 h)?
Answer: Its early apoptotic cells is 10%.

Question: What about the early apoptotic cells ([4]; 2 µM, 48 h) of the same compound?
Answer: The early apoptotic cells was 20%.

Question: What about the early apoptotic cells ([4]; 4 µM, 24 h) of the same compound?
Answer: The early apoptotic cells was 85%.

Question: And the early apoptotic cells ([4]; 4 μM, 48 h)?
Answer: Its early apoptotic cells is 75%.

Question: What about the early apoptotic cells ([4]; 6 µM, 24 h) of the same compound?
Answer: The early apoptotic cells was 55%.

Question: What about the necrotic cells ([4]; 6 µM, 24 h) of the same compound?
Answer: The necrotic cells was 30%.

Question: What about the early apoptotic cells ([4]; 6 µM, 48 h) of the same compound?
Answer: The early apoptotic cells was 30%.

Question: What about the necrotic cells ([4]; 6 µM, 48 h) of the same compound?
Answer: The necrotic cells was 50%.

Question: And the necrotic cells ([4]; 2 and 4 µM, 24 and 48 h)?
Answer: Its necrotic cells is ~ 10%.

Question: And the viable cells ([4]; 24 h, end of dose-dependent decrease (2–6 µM))?
Answer: The viable cells was “less than 5%”.

Question: And the viable cells ([4]; 48 h, with increasing treatment dose (2–6 µM))?
Answer: The viable cells was “less than 5%”.

Question: What about the “dosage from which reduction in cell viability was significantly higher at 48 and 72 h than at 24 h” value [5] of the same compound?
Answer: Its value is 6.3 µM.

Question: What about the cell viability ([5]; 6.3 μM onwards, 24 h) of the same compound?
Answer: Its cell viability is 34%.

Question: And the cell growth ([5]; 6.3 μM onwards, 48 h)?
Answer: The cell growth was 12%.

Question: And the cell growth ([5]; 6.3 μM onwards, 72 h)?
Answer: The cell growth was 5%.

Question: And the “dosage from which reduction in cell viability was significantly higher at 48 and 72 h than at 24 h” value [6]?
Answer: Its value is 3.1 µM.

Question: What about the cell growth ([6]; 12.5 μM onwards, 24 h) of the same compound?
Answer: Its cell growth is 43%.

Question: What about the cell viability ([6]; 48 h) of the same compound?
Answer: The cell viability was 22%.

Question: What about the cell viability ([6]; 72 h) of the same compound?
Answer: Its cell viability is 9%.

Question: And the “relative caspase-3 activity” value [7]?
Answer: Its value is “no significant differences”.

Question: And the “relative caspase-3 activity” value ([8]; 2 μM)?
Answer: Its value is “low caspase-3 activity”.

Question: What about the “relative caspase-3 activity” value ([8]; 4 μM, 48 h) of the same compound?
Answer: The value was “increased activity”.

Question: What about the “relative caspase-3 activity” value ([8]; 6 μM, 24 h, treated over untreated) of the same compound?
Answer: The value was “threefold increase”.
